Columns and labels:
field bindweed = assay: Test E preemergence; format: in vivo, Convolvulus arvensis; conditions: for Field Bindweed plant response rating: scale 0 to 100 (0 no effect, 100 complete control); for Plant response rating, Field Bindweed: scale 0 to 100, 0 no effect, 100 complete control
Summary of the method: (§1)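 Compound in a non-phytotoxic solvent mixture with surfactant was applied preemergence to seeds in silt loam soil, or postemergence to plants 2 to 18 cm tall grown in peat-based potting medium. Plants were kept in a greenhouse for 14 to 21 days, then rated visually against untreated controls on a 0 (no effect) to 100 (complete control) scale.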

nightshade = assay: Test E preemergence; format: in vivo, Solanum ptycanthum; conditions: for Nightshade plant response rating: scale 0 to 100 (0 no effect, 100 complete control); for Plant response rating, Nightshade: scale 0 to 100, 0 no effect, 100 complete control
Summary of the method: as §1

rice = assay: Test C flooded paddy test; format: in vivo, Oryza sativa; conditions: Flood, scale 0 to 100 (0 no effect, 100 complete control), 13 to 15 days
Summary of the method: (§2)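 Ratings were visual and made relative to untreated controls after 13 to 15 greenhouse days.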

kochia = assay: Test E preemergence; format: in vivo, Kochia scoparia; conditions: for Kochia plant response rating: scale 0 to 100 (0 no effect, 100 complete control); for Plant response rating, Kochia: scale 0 to 100, 0 no effect, 100 complete control
Summary of the method: as §1

velvetleaf = assay: Test E preemergence; format: in vivo, Abutilon theophrasti; conditions: for Velvetleaf plant response rating: scale 0 to 100 (0 no effect, 100 complete control); for Plant response rating, Velvetleaf: scale 0 to 100, 0 no effect, 100 complete control
Summary of the method: as §1

hairy beggarticks = assay: Test E preemergence; format: in vivo, Bidens pilosa; conditions: for Beggarticks plant response rating: scale 0 to 100 (0 no effect, 100 complete control); for Plant response rating, Beggarticks: scale 0 to 100, 0 no effect, 100 complete control
Summary of the method: as §1

sedge, umbrella = assay: Test C flooded paddy test; format: in vivo, Cyperus difformis; conditions: Flood, scale 0 to 100 (0 no effect, 100 complete control), 13 to 15 days
Summary of the method: as §2

wild poinsettia = assay: Test E preemergence; format: in vivo, Euphorbia heterophylla; conditions: for Poinsettia, Wild plant response rating: scale 0 to 100 (0 no effect, 100 complete control); for Plant response rating, Poinsettia, Wild: scale 0 to 100, 0 no effect, 100 complete control
Summary of the method: as §1

Brazilian crabgrass = assay: Test E preemergence; format: in vivo, Digitaria horizontalis; conditions: for Crabgrass, Brazil plant response rating: scale 0 to 100 (0 no effect, 100 complete control); for Plant response rating, Crabgrass, Brazil: scale 0 to 100, 0 no effect, 100 complete control
Summary of the method: as §1

arrowleaf sida = assay: Test E preemergence; format: in vivo, Sida rhombifolia; conditions: for Arrowleaf Sida plant response rating: scale 0 to 100 (0 no effect, 100 complete control); for Plant response rating, Arrowleaf Sida: scale 0 to 100, 0 no effect, 100 complete control
Summary of the method: as §1

johnsongrass = assay: Test E preemergence; format: in vivo, Sorghum halepense; conditions: for Johnsongrass plant response rating: scale 0 to 100 (0 no effect, 100 complete control); for Plant response rating, Johnsongrass: scale 0 to 100, 0 no effect, 100 complete control
Summary of the method: as §1

dayflower = assay: Test E preemergence; format: in vivo, Commelina virginica; conditions: for Dayflower, VA plant response rating: scale 0 to 100 (0 no effect, 100 complete control); for Plant response rating, Dayflower, VA: scale 0 to 100, 0 no effect, 100 complete control
Summary of the method: as §1

ragweed = assay: Test A postemergence; format: in vivo, Ambrosia elatior; conditions: 0 to 100 scale, 0 no effect, 100 complete control
Summary of the method: (§3)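 Scoring: eye-based comparison with untreated controls, 0 for no effect through 100 for complete control, at about day 10. Treatments: directed soil spray preemergence; foliar spray postemergence on 2–10 cm plants at the one- to two-leaf stage. Medium: loam soil with sand.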

galium = assay: Test A postemergence; format: in vivo, Galium aparine; conditions: 0 to 100 scale, 0 no effect, 100 complete control
Summary of the method: as §3

Italian ryegrass = assay: Test A postemergence; format: in vivo, Lolium multiflorum; conditions: 0 to 100 scale, 0 no effect, 100 complete control
Summary of the method: as §3

With `N#Cc1cccc(Oc2ncc(Br)cn2)c1-n1cc(C(F)(F)F)cn1` [Compound 59, 3-[(5-bromo-2-pyrimidinyl)oxy]-2-[4-(trifluoromethyl)-1H-pyrazol-1-yl]benzonitrile] the “Field Bindweed plant response rating” value (field bindweed; 16 g ai/ha) was 0, the “Field Bindweed plant response rating” value (field bindweed; 31 g ai/ha) was 5 and the “Field Bindweed plant response rating” value (field bindweed; 62 g ai/ha) was 60. For the same compound, the “Plant response rating, Field Bindweed” value (field bindweed; 125 g ai/ha) was 60, the “Plant response rating, Field Bindweed” value (field bindweed; 250 g ai/ha) was 100 and the “Nightshade plant response rating” value (nightshade; 16 g ai/ha) was 0. The “Nightshade plant response rating” value (nightshade; 31 g ai/ha) was 50, the “Nightshade plant response rating” value (nightshade; 62 g ai/ha) was 90 and the “Plant response rating, Nightshade” value (nightshade; 125 g ai/ha) was 100. For the same compound, the “Plant response rating, Nightshade” value (nightshade; 250 g ai/ha) was 100, the “Plant response rating, Rice” value (rice; 31 g ai/ha) was 0 and the “Plant response rating, Rice” value (rice; 62 g ai/ha) was 15. For the same compound, the “Plant response rating, Rice” value (rice; 125 g ai/ha) was 20, the “Plant response rating, Rice” value (rice; 250 g ai/ha) was 20 and the “Kochia plant response rating” value (kochia; 16 g ai/ha) was 20. For the same compound, the “Kochia plant response rating” value (kochia; 31 g ai/ha) was 80, the “Kochia plant response rating” value (kochia; 62 g ai/ha) was 100 and the “Plant response rating, Kochia” value (kochia; 125 g ai/ha) was 100. For the same compound, the “Plant response rating, Kochia” value (kochia; 250 g ai/ha) was 100, the “Velvetleaf plant response rating” value (velvetleaf; 16 g ai/ha) was 0 and the “Velvetleaf plant response rating” value (velvetleaf; 31 g ai/ha) was 25. The “Velvetleaf plant response rating” value (velvetleaf; 62 g ai/ha) was 75, the “Plant response rating, Velvetleaf” value (velvetleaf; 125 g ai/ha) was 100 and the “Plant response rating, Velvetleaf” value (velvetleaf; 250 g ai/ha) was 100. For the same compound, the “Beggarticks plant response rating” value (hairy beggarticks; 16 g ai/ha, preemergence) was 0, the “Beggarticks plant response rating” value (hairy beggarticks; 31 g ai/ha, preemergence) was 0 and the “Plant response rating, Beggarticks” value (hairy beggarticks; Preemergence, 62 g ai/ha) was 0. The “Plant response rating, Beggarticks” value (hairy beggarticks; preemergence, 125 g ai/ha) was 0, the “Plant response rating, Beggarticks” value (hairy beggarticks; preemergence, 250 g ai/ha) was 25 and the “Plant response rating, Sedge, Umbrella” value (sedge, umbrella; 31 g ai/ha) was 60. For the same compound, the “Plant response rating, Sedge, Umbrella” value (sedge, umbrella; 62 g ai/ha) was 80, the “Plant response rating, Sedge, Umbrella” value (sedge, umbrella; 125 g ai/ha) was 90 and the “Plant response rating, Sedge, Umbrella” value (sedge, umbrella; 250 g ai/ha) was 95. For the same compound, the “Poinsettia, Wild plant response rating” value (wild poinsettia; 16 g ai/ha) was 0, the “Poinsettia, Wild plant response rating” value (wild poinsettia; 31 g ai/ha) was 0 and the “Poinsettia, Wild plant response rating” value (wild poinsettia; 62 g ai/ha) was 10. For the same compound, the “Plant response rating, Poinsettia, Wild” value (wild poinsettia; 125 g ai/ha) was 20, the “Plant response rating, Poinsettia, Wild” value (wild poinsettia; 250 g ai/ha) was 100 and the “Crabgrass, Brazil plant response rating” value (Brazilian crabgrass; 16 g ai/ha) was 80. The “Crabgrass, Brazil plant response rating” value (Brazilian crabgrass; 31 g ai/ha) was 100, the “Crabgrass, Brazil plant response rating” value (Brazilian crabgrass; 62 g ai/ha) was 100 and the “Plant response rating, Crabgrass, Brazil” value (Brazilian crabgrass; 125 g ai/ha) was 100. The “Plant response rating, Crabgrass, Brazil” value (Brazilian crabgrass; 250 g ai/ha) was 100, the “Arrowleaf Sida plant response rating” value (arrowleaf sida; 16 g ai/ha, preemergence) was 50 and the “Arrowleaf Sida plant response rating” value (arrowleaf sida; 31 g ai/ha, preemergence) was 50. For the same compound, the “Plant response rating, Arrowleaf Sida” value (arrowleaf sida; Preemergence, 62 g ai/ha) was 75, the “Plant response rating, Arrowleaf Sida” value (arrowleaf sida; preemergence, 125 g ai/ha) was 100 and the “Plant response rating, Arrowleaf Sida” value (arrowleaf sida; preemergence, 250 g ai/ha) was 100. For the same compound, the “Johnsongrass plant response rating” value (johnsongrass; 16 g ai/ha) was 0, the “Johnsongrass plant response rating” value (johnsongrass; 31 g ai/ha) was 0 and the “Johnsongrass plant response rating” value (johnsongrass; 62 g ai/ha) was 60. The “Plant response rating, Johnsongrass” value (johnsongrass; 125 g ai/ha) was 75, the “Plant response rating, Johnsongrass” value (johnsongrass; 250 g ai/ha) was 100 and the “Dayflower, VA plant response rating” value (dayflower; 16 g ai/ha) was 0. The “Dayflower, VA plant response rating” value (dayflower; 31 g ai/ha) was 5, the “Dayflower, VA plant response rating” value (dayflower; 62 g ai/ha) was 25 and the “Plant response rating, Dayflower, VA” value (dayflower; 125 g ai/ha) was 85. The “Plant response rating, Dayflower, VA” value (dayflower; 250 g ai/ha) was 98.
`FCc1cccc(Oc2ncc(Cl)cn2)c1-n1cc(Cl)cn1` [Compound 250] was tested, and the “Field Bindweed plant response rating” value (field bindweed; 16 g ai/ha) was 0, the “Field Bindweed plant response rating” value (field bindweed; 31 g ai/ha) was 0 and the “Field Bindweed plant response rating” value (field bindweed; 62 g ai/ha) was 0. For the same compound, the “Plant response rating, Field Bindweed” value (field bindweed; 125 g ai/ha) was 0, the “Nightshade plant response rating” value (nightshade; 31 g ai/ha) was 0 and the “Nightshade plant response rating” value (nightshade; 62 g ai/ha) was 35. For the same compound, the “Plant response rating, Nightshade” value (nightshade; 125 g ai/ha) was 98, the “Plant response rating, Ragweed” value (ragweed; 31 g ai/ha) was 50 and the “Plant response rating, Ragweed” value (ragweed; 125 g ai/ha) was 100. For the same compound, the “Kochia plant response rating” value (kochia; 31 g ai/ha) was 0, the “Kochia plant response rating” value (kochia; 62 g ai/ha) was 0 and the “Plant response rating, Kochia” value (kochia; 125 g ai/ha) was 98. The “Velvetleaf plant response rating” value (velvetleaf; 31 g ai/ha) was 75, the “Velvetleaf plant response rating” value (velvetleaf; 62 g ai/ha) was 75 and the “Plant response rating, Velvetleaf” value (velvetleaf; 125 g ai/ha) was 100. For the same compound, the “Beggarticks plant response rating” value (hairy beggarticks; 16 g ai/ha, preemergence) was 0, the “Beggarticks plant response rating” value (hairy beggarticks; 31 g ai/ha, preemergence) was 0 and the “Beggarticks plant response rating” value (hairy beggarticks; 62 g ai/ha, preemergence) was 0. For the same compound, the “Plant response rating, Beggarticks” value (hairy beggarticks; preemergence, 125 g ai/ha) was 20, the “Plant response rating, Galium” value (galium; 31 g ai/ha) was 10 and the “Plant response rating, Galium” value (galium; 125 g ai/ha) was 60. For the same compound, the “Plant response rating, Ryegrass, Italian” value (Italian ryegrass; 31 g ai/ha) was 0, the “Plant response rating, Ryegrass, Italian” value (Italian ryegrass; 125 g ai/ha) was 0 and the “Poinsettia, Wild plant response rating” value (wild poinsettia; 31 g ai/ha) was 0. For the same compound, the “Poinsettia, Wild plant response rating” value (wild poinsettia; 62 g ai/ha) was 0, the “Plant response rating, Poinsettia, Wild” value (wild poinsettia; 125 g ai/ha) was 20 and the “Crabgrass, Brazil plant response rating” value (Brazilian crabgrass; 16 g ai/ha) was 0. For the same compound, the “Crabgrass, Brazil plant response rating” value (Brazilian crabgrass; 31 g ai/ha) was 0, the “Crabgrass, Brazil plant response rating” value (Brazilian crabgrass; 62 g ai/ha) was 5 and the “Plant response rating, Crabgrass, Brazil” value (Brazilian crabgrass; 125 g ai/ha) was 98. The “Arrowleaf Sida plant response rating” value (arrowleaf sida; 16 g ai/ha, preemergence) was 0, the “Arrowleaf Sida plant response rating” value (arrowleaf sida; 31 g ai/ha, preemergence) was 20 and the “Arrowleaf Sida plant response rating” value (arrowleaf sida; 62 g ai/ha, preemergence) was 60. The “Plant response rating, Arrowleaf Sida” value (arrowleaf sida; preemergence, 125 g ai/ha) was 100, the “Johnsongrass plant response rating” value (johnsongrass; 31 g ai/ha) was 0 and the “Johnsongrass plant response rating” value (johnsongrass; 62 g ai/ha) was 0. The “Plant response rating, Johnsongrass” value (johnsongrass; 125 g ai/ha) was 50, the “Dayflower, VA plant response rating” value (dayflower; 16 g ai/ha) was 0 and the “Dayflower, VA plant response rating” value (dayflower; 31 g ai/ha) was 0. The “Dayflower, VA plant response rating” value (dayflower; 62 g ai/ha) was 50 and the “Plant response rating, Dayflower, VA” value (dayflower; 125 g ai/ha) was 70.

Source: patent US9695155B2, “Herbicidal substituted pyrimidinyloxy benzene compounds” (E. I. DU PONT DE NEMOURS AND COMPANY, priority 2013, dated 2017)
